Experimental data as given in ChEMBL document CHEMBL1201862, “PubChem BioAssay data set” (2004).
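These data come from cells grown in 96-well plates and exposed to compound for 48 hours at five concentrations. The concentration for 50% growth inhibition is given as GI50.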 Activity calls are given as the source filed them. Rule as the data show it: active = GI50 up to about 1.1 µM and inactive = higher.

Experiments:
Assay in all cases: DTP human tumour cell line panel, 48 h
HT-29 = test system: HT-29
IGROV-1 = test system: IGROV-1
RPMI-8226 = test system: RPMI-8226
786-0 = test system: 786-0
Malme-3M = test system: Malme-3M
LOX IMVI = test system: LOX IMVI
HOP-92 = test system: HOP-92
U-251 = test system: U-251
SNB-19 = test system: SNB-19
A549 = test system: A549
PC-3 = test system: PC-3
OVCAR-3 = test system: OVCAR-3
SF-295 = test system: SF-295
NCI-H460 = test system: NCI-H460
OVCAR-4 = test system: OVCAR-4
OVCAR-8 = test system: OVCAR-8
SNB-75 = test system: SNB-75
NCI-H23 = test system: NCI-H23
COLO 205 = test system: COLO 205

Structure (SMILES)	GI50 (HT-29)	GI50 (IGROV-1)	GI50 (RPMI-8226)	GI50 (786-0)	GI50 (Malme-3M)	GI50 (LOX IMVI)	GI50 (HOP-92)	GI50 (U-251)	GI50 (SNB-19)	GI50 (A549)	GI50 (PC-3)	GI50 (OVCAR-3)	GI50 (SF-295)	GI50 (NCI-H460)	GI50 (OVCAR-4)	GI50 (OVCAR-8)	GI50 (SNB-75)	GI50 (NCI-H23)	GI50 (COLO 205)
C/C(=N\O)c1ccc(Nc2c3ccccc3nc3occc23)cc1	0.199 µM (active)	0.231 µM (active)	0.207 µM (active)	0.51 µM (active)	11.5 µM (inactive)	0.29 µM (active)	12.2 µM (inactive)	0.333 µM (active)	0.603 µM (active)	0.263 µM (active)	0.327 µM (active)	0.695 µM (active)	0.151 µM (active)	0.2 µM (active)	0.762 µM (active)	0.531 µM (active)	0.662 µM (active)	1.36 µM (inactive)	0.156 µM (active)
COc1ccc(C2SC(=N)Nc3c2c(C)nn3C(=O)c2ccncc2)cc1OC (centres undefined)	> 10 µM (inactive)	> 10 µM (inactive)	> 10 µM (inactive)	> 10 µM (inactive)	> 10 µM (inactive)	> 10 µM (inactive)	> 10 µM (inactive)	> 10 µM (inactive)	> 10 µM (inactive)	> 10 µM (inactive)	> 10 µM (inactive)	> 10 µM (inactive)	> 10 µM (inactive)	> 10 µM (inactive)	> 10 µM (inactive)	> 10 µM (inactive)	> 10 µM (inactive)	> 10 µM (inactive)	> 10 µM (inactive)
CC(C)N1C=[N+](C(C)C)CC1	> 100 µM (inactive)	> 100 µM (inactive)	> 100 µM (inactive)	> 100 µM (inactive)	> 100 µM (inactive)	> 100 µM (inactive)	> 100 µM (inactive)	> 100 µM (inactive)	> 100 µM (inactive)	> 100 µM (inactive)	> 100 µM (inactive)	> 100 µM (inactive)	> 100 µM (inactive)	> 100 µM (inactive)	> 100 µM (inactive)	> 100 µM (inactive)	> 100 µM (inactive)	> 100 µM (inactive)	> 100 µM (inactive)
CN1CCN(C(=O)CCNC(=O)Cc2ccc(C(=O)c3ccccc3)cc2)CC1	> 100 µM (inactive)	> 100 µM (inactive)	> 100 µM (inactive)	> 100 µM (inactive)	> 100 µM (inactive)	> 100 µM (inactive)	> 100 µM (inactive)	> 100 µM (inactive)	> 100 µM (inactive)	> 100 µM (inactive)	> 100 µM (inactive)	> 100 µM (inactive)	> 100 µM (inactive)	> 100 µM (inactive)	> 100 µM (inactive)	> 100 µM (inactive)	> 100 µM (inactive)	> 100 µM (inactive)	74 µM (inactive)
CCCNC(=S)N/N=C(\C)c1ccc(S(=O)(=O)N(C)c2ccccc2)cc1	> 100 µM (inactive)	22.1 µM (inactive)	> 31.6 µM (inactive)	19.3 µM (inactive)	> 100 µM (inactive)	> 100 µM (inactive)	20.4 µM (inactive)	19.7 µM (inactive)	39.4 µM (inactive)	46.3 µM (inactive)	> 100 µM (inactive)	> 59.2 µM (inactive)	18.3 µM (inactive)	> 100 µM (inactive)	> 67.6 µM (inactive)	24.5 µM (inactive)	17.9 µM (inactive)	> 60.8 µM (inactive)	> 100 µM (inactive)
CS/C(N)=N/c1cccc2ccccc12	> 10 µM (inactive)	> 10 µM (inactive)	> 10 µM (inactive)	> 10 µM (inactive)	> 10 µM (inactive)	> 10 µM (inactive)	> 10 µM (inactive)	> 10 µM (inactive)	> 10 µM (inactive)	> 10 µM (inactive)	> 10 µM (inactive)	> 10 µM (inactive)	> 10 µM (inactive)	> 10 µM (inactive)	> 10 µM (inactive)	> 10 µM (inactive)	> 10 µM (inactive)	> 10 µM (inactive)	> 10 µM (inactive)
COc1ccc(C(=O)c2nc3ccccc3nc2N2CCN(c3ccccc3)CC2)cc1OC	> 100 µM (inactive)	> 100 µM (inactive)	> 100 µM (inactive)	> 100 µM (inactive)	> 100 µM (inactive)	> 100 µM (inactive)	> 100 µM (inactive)	> 100 µM (inactive)	> 100 µM (inactive)	> 100 µM (inactive)	> 100 µM (inactive)	> 100 µM (inactive)	> 100 µM (inactive)	> 100 µM (inactive)	> 100 µM (inactive)	> 100 µM (inactive)	> 100 µM (inactive)	> 100 µM (inactive)	> 100 µM (inactive)
NC(=O)C(=CNC(=S)Nc1ccccc1)C(N)=O	> 100 µM (inactive)	> 100 µM (inactive)	> 100 µM (inactive)	> 100 µM (inactive)	> 100 µM (inactive)	> 100 µM (inactive)	29.9 µM (inactive)	> 100 µM (inactive)	> 100 µM (inactive)	> 100 µM (inactive)	> 100 µM (inactive)	1.05 µM (active)	> 100 µM (inactive)	> 100 µM (inactive)	> 100 µM (inactive)	> 100 µM (inactive)	64.9 µM (inactive)	> 100 µM (inactive)	> 100 µM (inactive)
N=C(N)N/N=C/c1c(-c2ccccc2[N+](=O)[O-])nc2sccn12	27.7 µM (inactive)	37.6 µM (inactive)	19.5 µM (inactive)	19.5 µM (inactive)	15.7 µM (inactive)	19.9 µM (inactive)	27.1 µM (inactive)	15.8 µM (inactive)	23.8 µM (inactive)	34.1 µM (inactive)	24.3 µM (inactive)	24.9 µM (inactive)	22 µM (inactive)	19.1 µM (inactive)	45.9 µM (inactive)	32.2 µM (inactive)	11.9 µM (inactive)	29.2 µM (inactive)	15.8 µM (inactive)
COC(=O)[C@@]12CCCC(=O)[C@@H]1[C@H]1CCCC[C@H]12	> 100 µM (inactive)	> 100 µM (inactive)	> 100 µM (inactive)	> 100 µM (inactive)	> 100 µM (inactive)	> 100 µM (inactive)	32.1 µM (inactive)	> 100 µM (inactive)	> 100 µM (inactive)	> 100 µM (inactive)	> 100 µM (inactive)	> 100 µM (inactive)	> 100 µM (inactive)	> 100 µM (inactive)	> 100 µM (inactive)	> 100 µM (inactive)	> 100 µM (inactive)	> 100 µM (inactive)	> 100 µM (inactive)
Fc1ccc(C(OCCN2CCC3CCC(C2)N3C/C=C/c2cccs2)c2ccc(F)cc2)cc1 (centres undefined)	1.37 µM (inactive)	10.1 µM (inactive)	0.0133 µM (active)	8.49 µM (inactive)	6.03 µM (inactive)	6.38 µM (inactive)	6.25 µM (inactive)	5.64 µM (inactive)	13.9 µM (inactive)	11 µM (inactive)	5.75 µM (inactive)	10.6 µM (inactive)	10.5 µM (inactive)	3.08 µM (inactive)	7.36 µM (inactive)	4.06 µM (inactive)	14.7 µM (inactive)	8.34 µM (inactive)	1.96 µM (inactive)
